Molecular target: T1, rat liver microsomal HMGCoA reductase (Rattus norvegicus, UniProt P51639)
T1 construct: rat liver microsomal HMGCoA reductase; from tissue; host or cells: rat liver microsomes
T1 sequence (P51639 1-887): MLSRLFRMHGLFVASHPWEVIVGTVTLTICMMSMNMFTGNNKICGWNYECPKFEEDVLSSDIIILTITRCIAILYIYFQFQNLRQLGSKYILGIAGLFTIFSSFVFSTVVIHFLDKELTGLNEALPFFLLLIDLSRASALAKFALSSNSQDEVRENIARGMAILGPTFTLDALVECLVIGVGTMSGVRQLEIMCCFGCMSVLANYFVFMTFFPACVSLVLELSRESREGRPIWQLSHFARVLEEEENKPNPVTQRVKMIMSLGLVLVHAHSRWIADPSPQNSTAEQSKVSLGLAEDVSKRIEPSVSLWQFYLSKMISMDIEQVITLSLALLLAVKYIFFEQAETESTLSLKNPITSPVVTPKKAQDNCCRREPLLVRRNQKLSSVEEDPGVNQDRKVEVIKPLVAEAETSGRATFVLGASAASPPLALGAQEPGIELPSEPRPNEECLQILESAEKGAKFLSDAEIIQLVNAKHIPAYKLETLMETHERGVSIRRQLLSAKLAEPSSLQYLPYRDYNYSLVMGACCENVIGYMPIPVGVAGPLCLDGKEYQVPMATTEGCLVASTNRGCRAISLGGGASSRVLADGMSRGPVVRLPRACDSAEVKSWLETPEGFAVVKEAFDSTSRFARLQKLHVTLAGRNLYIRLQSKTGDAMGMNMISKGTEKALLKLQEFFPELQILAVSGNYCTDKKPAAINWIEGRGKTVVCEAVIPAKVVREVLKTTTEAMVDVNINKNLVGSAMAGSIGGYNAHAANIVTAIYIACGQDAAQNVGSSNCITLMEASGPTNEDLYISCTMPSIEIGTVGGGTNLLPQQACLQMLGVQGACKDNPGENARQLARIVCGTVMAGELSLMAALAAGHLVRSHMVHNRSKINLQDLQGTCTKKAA
Assay: in vitro inhibition of rat liver microsomal HMGCoA reductase
Assay type: biochemical
Conditions: 40 μM 14C-HMGCoA, 15 min at 37° C., pH7.2
Description: The IC50 is defined as the concentration required to inhibit the enzyme by 50% of control.
Triplicate samples are preincubated for 15 min. at 37° C. in a volume of 1 ml. […] Mevalonic acid is extracted with ether and the % ^14 C-HMGCoA incorporation determined for concurrent control and test reaction systems. Testing is done (first) with a range finding assay followed by a 4 or 5 point assay to find the IC50 value.

IC50: 1000 nM
Structure (SMILES): CC[C@H](C)C(=O)O[C@H]1CCC=C2C=C[C@H](C)[C@H](CC[C@@H]3C[C@@H](O)CC(=O)O3)[C@H]21 [Compactin]

Reference: patent publication US4895973A, “Substituted glutaric acid lactones in the treatment of hyperlipidemia” (G. D. Searle & Company, priority 1988, dated 1990)
